From patent US12403114B2, “Cannabinoid acid ester compositions and uses thereof” (EPM (IP), INC., priority 2019, dated 2025)

How the values were obtained:
Type in all cases: in vivo
[1] = system: partial meniscectomy/ACL transection rat model of surgical induced osteoarthritis; test: Morphological evaluation of the joint surfaces (osteophyte, gross surface, articular surface damage), Example 6
Experimental: Morphological evaluation of the joint surfaces was performed using digital images of the joint. The parameters evaluated included percentage of articular surface damage of the proximal tibia calculated as the area of lesions divided by the total condylar surface area, gross surface score and osteophyte score as described (Yanagisawa et al. BMC Musculoskeletal Disorders. April 2016; 17:188).
The gross finding score in the articular cartilage was graded as follows: • (i) Grade 1—intact articular surface; • (ii) Grade 2—minimal osteophyte; • (iii) Grade 3—over spur formation; • (iv) Grade 4—width of erosion area 0 to 0.5 mm • (v) Grade 5—width of erosion area 0.5 to 1 mm. • (vi) Grade 6—width erosion area 1 to 1.5 mm • (vii) Grade 7—width of erosion area 1.5 to 2.0 mm • (viii) Grade 8—width of erosion area >2.0 mm
The osteophyte score was graded as follows: • (i) Grade 0—normal around the medial tibia; • (ii) Grade 1—osteophyte formation ⅓ around the medial tibia; • (iii) Grade 2—osteophyte formation halfway around the medial tibia; • (iv) Grade 3—osteophyte formation ⅔ around the medial tibia; • (v) Grade 4—osteophyte formation all around the medial tibia.

[2] = system: weight gain in rats with an adipogenic diet; test: Rat model of diet induced obesity (Teklad TD95217 adipogenic diet), weight gain; conditions: 150 uL of 3.5 mg/ml i.p., each animal its own control (FIG. 33)
Experimental: The study was designed as a N-of-1 study, where each animal served as its own control. The advantage of this model is the elimination of the need for a control group and reduction of […] variation. The study was performed in two phases: a short-term study with one week exposure to EPM-301 and a long-term study with 8 weeks exposure to EPM-301 (injected daily). In the long-term study, a control group was used including animals fed the adipogenic diet.
EPM-301 was dissolved in 1:1:18 EtOH:cremophor:seline solution to final concentration of 3.5 mg/ml.
In the short-term experiment, all rats were injected i.p. 150 uL in the first day, and after a 3-day break were then injected i.p. every day for 4 days. In the long-term experiment i.p. injections of 150 uL were carried out daily for 8 weeks. Weight was measured at weeks 0, 1, 3, and 9 after injections.
The rats were weighed on a digital weight weekly in the short-term study for 3 weeks. The rats were weighed on weeks 0, 1, 3, and 9 in the long-term study.
Rats were allowed to acclimatize for 1 week, and then their weights were assessed using a digital weighing machine. Animals are fed an adipogenic diet for two weeks before starting injections.
The weights of the animals were compared at each time point and the change over time calculated. ANOVA was used to determine whether there was a significant change. […]

[3] = system: partial meniscectomy/ACL transection rat model of surgical induced osteoarthritis and pain induced incapacitance; test: Weight bearing in rat meniscectomy model versus hyaluronate and corticosteroid, Example 6
Experimental: (§1) Rats were allowed to acclimatize for 1 week, followed by assessment of their weight bearing preference using an incapacitance meter. Unilateral medical meniscectomy and anterior cruciate ligament […] (MMX/ACLT) surgery was performed on the right knee of a subject rat. Weight bearing preference was tested before and after surgery. After 2 weeks, treatments with both intra-articular (1) and. intra-peritoneal (6) administrations of EPM301 began in the EPM301 group. In the hyaluronate (HA) and corticosteroid (CS) groups, a single intra-articular injection was performed 2 weeks after model induction. Weight bearing preference was then assessed 4 and 7 days after the start of therapy.
(§2) Wistar Rats (HsdHan female rats 225-249 grams) were acquired from Envigo. The rats were evaluated using an incapacitance tester. They were tested pre-operation, one-week post-operation, two weeks post-operation, prior to injection, 4 and 7 days post injections.
EPM-301 was dissolved in a solution mixture of 1:1:18 EtOH:cremophor:seline to a final concentration of 3.5 mg/mL. Hyaluronic acid (Arthrease, 1% sodium hyaluronate) and Dexamethasone (kem Pharma, Venus, 72, Pol. Ind. Colom II, 08228 Terrassa, Barcelona) were acquired.
(§3) Intra-articular (i.a.) injection was carried out with 100 uL and intra-peritoneal (i.p.) injections were carried out with 150 uL. All were injected i.a. in the first day. EPM-301 was injected via i.p. administration on the first day, and for 5 additional days everyday via i.p. administration.
(§4) Student's t-test was performed at the last follow-up time to determine effect of the therapy as primary endpoint. The level of significance was 0.05 alpha. ANOVA was used to compare all time points, a post-hob analysis with the Scheffe all comparisons method was performed. Calculations were performed using the Analyze-it Excel add-on function.
The percentage of weight bearing was calculated as the amount of weight born (in grams) on the right hind limb divided by the amount of weight born on the left hind limb. This ratio was expressed as percentage weight bearing. Prior to operation the Rt/Lt weight bearing in both groups was similar. There were 4 animals in the EPM-301 treated group and 8 animals in each of the HA and CS treated groups, with a total of 20 tested subjects.

[4] = system: partial meniscectomy/ACL transection rat model of surgical induced osteoarthritis and pain induced incapacitance; test: Weight bearing (incapacitance tester) in rat partial meniscectomy/ACL transection model, Example 5
Experimental: as §1, with “EPM-301” for “EPM301”, “group.” for “group. In the hyaluronate (HA) and corticosteroid (CS) groups, a single intra-articular injection was performed 2 weeks after model induction.”
as §2
EPM-301 was dissolved in a solution mixture of 1:1:18 EtOH:cremophor:seline to a final concentration of 3.5 mg/mL.
as §3, §4
The percentage weight bearing was calculated as the amount of weight born (in grams) on the right hind limb divided by the amount of weight born on the left hind limb. The ratio was expressed as percentage weight bearing. There were 6 animals in the EPM-301 treated group and 4 animals in the control group.

[5] = immediately prior to injection, two weeks following model induction (baseline before treatment)

SMILES: C=C(C)[C@@H]1CCC(C)=CC1c1c(O)cc(CCCCC)c(C(=O)OC)c1O (stereo partly drawn) [EPM-301, cannabidiolic acid methyl ester]
- gross surface score ([1]; as compared to the HA and CS treated groups (FIG. 4)): improvement
- percentage of articular surface damage ([1]; as compared to the HA and CS treated groups (FIG. 5)): less
- osteophyte score ([1]; relative to the hyaluronic acid and the corticosteroid treatments (FIG. 3)): superiority
- weight gain, short-term study [2]: halting
- Rt limb weight bearing ([3]; following injections, EPM-301 i.a. once plus i.p. 6 days, HA and CS single i.a. injection): 99.1%
- weight bearing [3, 5]: 56.6%
- Rt limb weight bearing ([4]; following injection, 3.5 mg/mL, 100 uL i.a. once plus 150 uL i.p. on 6 days, control group 59.0%): 106.7%
- weight bearing, average value [4, 5]: 42.25%
- Rt/Lt weight bearing, average value ([4]; prior to operation (baseline of the group, before treatment)): 139.6%
